The values below come from US7659399B2, “1-thia-2,4a-diaza-cyclopenta[b]napththalene-3,4-diones and related compounds as anti-infective agents” (Achillion Pharmaceuticals, Inc., priority 2005, dated 2010).

The structures appear in SMILES notation. Counter-ions that a name gives are not always drawn. Bounds are passed on as bounds.

In data set [1] the test system is CHO (Chinese hamster ovary). To be noted: CHO cells; positive control, known CC50; cited from earlier work.
Data set [2] relates to HEP 2 (laryngeal carcinoma). Conditions: HEP 2 cells; positive control, known CC50; cited from earlier work.
For another data set, the target named is S. aureus DNA gyrase (Staphylococcus aureus, UniProt P0A0K8+P20831). Kind of data set: DNA gyrase supercoiling assay. Format: biochemical. Conditions: do not inhibit.
A further data set deals with T1, E. coli DNA gyrase (Escherichia coli, UniProt P0AES4+P0AES6).
T1 construct: made in house; host or cells: E. coli
Kind of data set: DNA gyrase supercoiling assay. Format: biochemical. How it is done:
Enzyme activity is measured by a supercoiling assay that monitors the ATP-dependent conversion of relaxed pBR322 DNA to the supercoiled form. Analysis is done by gel electrophoresis through 1% agarose/TBE gel. DNA is visualized with an Alpha Imager 2200 Analysis System and the IC50 determined by nonlinear regression analysis with Graphpad Prism software. E. coli DNA gyrase enzyme subunits, gyrA and gyrB, are purified to homogeneity from over-expression constructs in E. coli.

Another data set deals with E. coli ATCC 25922. The data set is described as follows: Minimum inhibitory concentration (MIC) assay, broth microdilution. Format: cell-based. To be noted: Escherichia coli, ATCC25922. How it is done: (§1) The antimicrobial activity of the compounds of the invention may be evaluated by a number of methods, including the following visual minimum inhibitory concentration (MIC) assay. This assay determines the minimum concentration of compound required to inhibit growth of a bacterial strain.
(§2) Whole-cell antibacterial activity is determined by broth microdilution using conditions recommended by the National Committee for Clinical Laboratory Standards (NCCLS).
(§3) Test compounds are dissolved in DMSO and diluted 1:50 in Mueller-Hinton II broth (Becton-Dickinson) to produce a 256 μg/ml stock solution. In a 96-well microtiter plate, the compound solution is serially two-fold diluted in Mueller-Hinton II broth. After the compounds are diluted, a […] aliquot of the test organism (˜1×10^6 cfu/mL) is added to each well of the microtiter plate. The final test concentrations range from 0.125-128 μg/mL. Inoculated plates are incubated in ambient air at 37° C. for 18 to 24 hours. The organisms selected for testing included laboratory strains S. aureus ATCC 29213 and E. coli ATCC 25922 (strains purchased from American Type Culture Collection, Manassas, Va.). The minimum inhibitory concentration (MIC) was determined as the lowest concentration of compound that inhibited visible growth of the test organism.
Background: In broth dilution the organism is exposed to a series of concentrations in liquid medium.

For the next data set, the system named is S. aureus ATCC 29213. The description is as above. To be noted: Staphylococcus aureus, ATCC29213. Format: cell-based. How it is done:
as §1, §2, §3

Data set [3] addresses T2, S. aureus topoisomerase IV (Staphylococcus aureus, UniProt P0C1S7+P0C1U9).
T2 construct: made in house; host or cells: E. coli
Kind of data set: Topoisomerase IV decatenation assay. Conditions: decatenation of kinetoplast DNA; read-out: inhibition of S. aureus topoisomerase IV activity IC50. Format: biochemical. How it is done:
Enzyme activity is measured by a decatenation assay that monitors the ATP-dependent unlinking of DNA minicircles from kinetoplast DNA. Analysis is done by gel electrophoresis through 1% agarose/TBE gel. DNA is visualized with an Alpha Imager 2200 Analysis System and the IC50 determined by nonlinear regression analysis with Graphpad Prism software. S. aureus topoismerase IV enzyme subunits, grlA and grlB, are purified to homogeneity from over-expression plasmids in E. coli.

Chain of S. aureus DNA gyrase (P20831 whole entry): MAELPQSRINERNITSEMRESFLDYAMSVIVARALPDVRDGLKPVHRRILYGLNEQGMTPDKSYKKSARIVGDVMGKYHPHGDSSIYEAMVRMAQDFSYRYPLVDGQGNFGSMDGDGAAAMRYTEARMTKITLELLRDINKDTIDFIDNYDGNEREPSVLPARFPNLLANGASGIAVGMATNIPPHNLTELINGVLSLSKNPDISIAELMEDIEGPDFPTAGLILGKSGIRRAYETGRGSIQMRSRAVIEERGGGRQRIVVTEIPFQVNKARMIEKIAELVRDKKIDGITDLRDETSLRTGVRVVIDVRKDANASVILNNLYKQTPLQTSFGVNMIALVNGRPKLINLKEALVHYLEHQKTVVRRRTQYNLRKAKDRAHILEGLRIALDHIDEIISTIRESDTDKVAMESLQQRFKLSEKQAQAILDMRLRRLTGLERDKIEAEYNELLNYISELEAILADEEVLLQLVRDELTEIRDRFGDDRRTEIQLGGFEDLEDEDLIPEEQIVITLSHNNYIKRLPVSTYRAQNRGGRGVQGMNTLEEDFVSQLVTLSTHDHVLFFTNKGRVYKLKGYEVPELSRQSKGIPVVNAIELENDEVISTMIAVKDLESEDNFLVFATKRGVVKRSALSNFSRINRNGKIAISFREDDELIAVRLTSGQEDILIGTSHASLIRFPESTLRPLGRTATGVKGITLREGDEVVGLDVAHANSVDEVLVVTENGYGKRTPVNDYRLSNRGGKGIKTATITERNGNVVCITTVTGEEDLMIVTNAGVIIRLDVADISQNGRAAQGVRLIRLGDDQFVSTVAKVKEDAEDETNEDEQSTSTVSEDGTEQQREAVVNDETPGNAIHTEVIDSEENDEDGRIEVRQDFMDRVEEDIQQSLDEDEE
Chain of S. aureus DNA gyrase (P0A0K8 whole entry): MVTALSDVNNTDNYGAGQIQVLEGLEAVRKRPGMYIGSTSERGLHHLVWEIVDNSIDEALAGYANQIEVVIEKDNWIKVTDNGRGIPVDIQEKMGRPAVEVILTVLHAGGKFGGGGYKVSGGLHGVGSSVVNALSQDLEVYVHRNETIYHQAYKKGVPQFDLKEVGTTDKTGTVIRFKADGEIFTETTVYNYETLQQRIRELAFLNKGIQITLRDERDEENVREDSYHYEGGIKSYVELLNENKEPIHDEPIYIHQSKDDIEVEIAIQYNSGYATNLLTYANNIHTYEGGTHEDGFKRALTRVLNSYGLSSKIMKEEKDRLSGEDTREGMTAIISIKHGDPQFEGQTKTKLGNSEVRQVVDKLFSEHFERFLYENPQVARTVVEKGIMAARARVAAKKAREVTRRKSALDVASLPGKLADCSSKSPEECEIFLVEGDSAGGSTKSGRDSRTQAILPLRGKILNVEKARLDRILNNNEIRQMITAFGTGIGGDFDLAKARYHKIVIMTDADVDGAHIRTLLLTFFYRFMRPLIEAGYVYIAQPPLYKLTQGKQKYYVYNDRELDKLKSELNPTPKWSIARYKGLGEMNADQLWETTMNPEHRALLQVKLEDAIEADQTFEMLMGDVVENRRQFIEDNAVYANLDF
T1 sequence (P0AES4 whole entry, one chain of several): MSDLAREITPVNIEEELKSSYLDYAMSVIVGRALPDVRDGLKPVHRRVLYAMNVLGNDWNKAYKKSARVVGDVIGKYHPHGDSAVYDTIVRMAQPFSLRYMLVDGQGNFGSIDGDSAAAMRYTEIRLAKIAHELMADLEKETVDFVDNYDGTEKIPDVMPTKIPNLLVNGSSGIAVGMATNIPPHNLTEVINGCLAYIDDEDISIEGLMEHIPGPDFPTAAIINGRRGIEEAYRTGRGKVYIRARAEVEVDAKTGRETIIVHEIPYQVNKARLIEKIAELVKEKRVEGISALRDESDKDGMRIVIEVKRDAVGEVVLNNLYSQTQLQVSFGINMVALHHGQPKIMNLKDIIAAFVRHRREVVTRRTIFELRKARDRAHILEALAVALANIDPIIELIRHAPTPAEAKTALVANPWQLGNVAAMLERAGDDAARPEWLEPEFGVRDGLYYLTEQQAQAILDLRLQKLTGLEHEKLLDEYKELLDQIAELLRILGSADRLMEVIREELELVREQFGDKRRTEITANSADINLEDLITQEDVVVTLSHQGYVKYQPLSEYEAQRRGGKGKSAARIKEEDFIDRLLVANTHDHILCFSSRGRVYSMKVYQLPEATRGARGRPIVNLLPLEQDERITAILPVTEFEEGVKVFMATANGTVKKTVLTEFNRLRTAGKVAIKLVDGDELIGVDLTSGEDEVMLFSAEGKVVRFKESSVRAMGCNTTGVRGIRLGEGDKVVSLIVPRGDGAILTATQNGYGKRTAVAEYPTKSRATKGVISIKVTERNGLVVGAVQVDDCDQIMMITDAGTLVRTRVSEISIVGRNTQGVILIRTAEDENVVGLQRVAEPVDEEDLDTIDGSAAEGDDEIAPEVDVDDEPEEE
T2 sequence (P0C1U9 whole entry): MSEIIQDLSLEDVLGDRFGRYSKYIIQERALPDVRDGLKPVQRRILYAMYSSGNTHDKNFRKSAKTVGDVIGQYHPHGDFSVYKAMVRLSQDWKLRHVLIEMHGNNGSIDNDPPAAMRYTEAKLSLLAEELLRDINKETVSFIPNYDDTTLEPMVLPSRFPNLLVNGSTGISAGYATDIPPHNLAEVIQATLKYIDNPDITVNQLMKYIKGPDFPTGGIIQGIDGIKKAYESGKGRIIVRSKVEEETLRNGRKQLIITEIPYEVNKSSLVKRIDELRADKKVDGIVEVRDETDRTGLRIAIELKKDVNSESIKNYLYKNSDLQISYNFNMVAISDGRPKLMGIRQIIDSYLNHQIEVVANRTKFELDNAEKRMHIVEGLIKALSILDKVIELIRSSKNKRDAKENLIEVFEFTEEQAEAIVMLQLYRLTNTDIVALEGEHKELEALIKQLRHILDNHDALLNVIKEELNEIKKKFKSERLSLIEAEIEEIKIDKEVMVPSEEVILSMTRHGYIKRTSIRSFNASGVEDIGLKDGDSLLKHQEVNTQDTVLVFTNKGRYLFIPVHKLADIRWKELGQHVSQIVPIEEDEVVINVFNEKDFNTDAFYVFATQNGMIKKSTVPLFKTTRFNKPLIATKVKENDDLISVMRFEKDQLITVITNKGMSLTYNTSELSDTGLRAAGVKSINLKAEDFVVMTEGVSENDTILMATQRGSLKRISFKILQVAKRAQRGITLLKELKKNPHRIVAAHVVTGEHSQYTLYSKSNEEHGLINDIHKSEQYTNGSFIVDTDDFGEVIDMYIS
T2 sequence (P0C1S7 whole entry): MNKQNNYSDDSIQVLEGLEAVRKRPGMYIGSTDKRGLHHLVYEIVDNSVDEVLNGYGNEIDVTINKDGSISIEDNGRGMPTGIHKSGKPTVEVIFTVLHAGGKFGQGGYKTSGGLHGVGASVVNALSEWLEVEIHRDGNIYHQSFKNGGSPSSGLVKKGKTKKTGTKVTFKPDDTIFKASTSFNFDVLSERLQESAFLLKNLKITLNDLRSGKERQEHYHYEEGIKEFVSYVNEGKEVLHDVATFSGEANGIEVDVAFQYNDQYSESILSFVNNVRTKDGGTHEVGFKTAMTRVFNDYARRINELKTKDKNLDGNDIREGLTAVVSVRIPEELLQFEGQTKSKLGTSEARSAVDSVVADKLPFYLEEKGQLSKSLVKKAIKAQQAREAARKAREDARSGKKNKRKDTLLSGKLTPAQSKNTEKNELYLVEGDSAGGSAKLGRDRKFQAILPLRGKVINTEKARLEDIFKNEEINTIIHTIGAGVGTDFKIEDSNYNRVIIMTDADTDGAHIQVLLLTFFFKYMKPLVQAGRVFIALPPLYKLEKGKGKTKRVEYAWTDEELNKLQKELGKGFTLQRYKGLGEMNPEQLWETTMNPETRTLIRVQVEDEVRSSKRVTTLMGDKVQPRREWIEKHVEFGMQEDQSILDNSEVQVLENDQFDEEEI

As a reminder, the CC50 is the concentration giving 50% cytotoxicity. Consider `CC(C)(C)c1ccc(C(O)CCCN2CCC(C(O)(c3ccccc3)c3ccccc3)CC2)cc1` (centres unmarked) [Terfenadine], for which the CC50 in data set [1] was 4.3 to 6.5 µM; in data set [2] it was 3 to 5 µM.
Usually melting point stands for the temperature of the solid-liquid transition. On to `CCc1c2s[nH]c(=O)c2c(=O)n2ccc(-c3cc(C)nc(C)c3)cc12` (as salt: hydrochloride) [Compound 9, 7-(2,6-Dimethylpyridin-4-yl)-9-ethyl-1-thia-2,4a-diaza-cyclopenta[b]naphthalene-3,4-dione hydrochloride], for which the melting point was 279 to 280 °C (dec.).
A word on the IC50: it is the concentration that gives 50% inhibition. The MIC is the lowest concentration that inhibits growth of the organism. Low readings indicate a more susceptible organism, high ones a less susceptible organism. For the molecule `CCc1c2s[nH]c(=O)c2c(=O)n2ccc(-c3cc(C)nc(C)c3)cc12` [Compound 9, 7-(2,6-Dimethylpyridin-4-yl)-9-ethyl-1-thia-2,4a-diaza-cyclopenta[b]naphthalene-3,4-dione hydrochloride], the IC50 at S. aureus DNA gyrase was over 200 µM; at E. coli DNA gyrase, under 1 µM; in data set [3], under 10 µM. Further, the minimal inhibitory concentration (MIC) against E. coli ATCC 25922 and in the data set with S. aureus ATCC 29213 was 10 µg/mL throughout.
Consider `CCc1c2s[nH]c(=O)c2c(=O)n2ccc(-c3ccncc3)cc12` [Compound 8, 9-Ethyl-7-pyridin-4-yl-1-thia-2,4a-diaza-cyclopenta[b]naphthalene-3,4-dione hydrochloride], for which the IC50 against S. aureus DNA gyrase was over 200 µM; at E. coli DNA gyrase it was under 1 µM; in data set [3], under 10 µM. Moreover, the MIC against E. coli ATCC 25922 and with S. aureus ATCC 29213 was 10 µg/mL each time.
As for `CCc1c2s[nH]c(=O)c2c(=O)n2ccc(-c3ccncc3)cc12` (as salt: hydrochloride) [Compound 8, 9-Ethyl-7-pyridin-4-yl-1-thia-2,4a-diaza-cyclopenta[b]naphthalene-3,4-dione hydrochloride], the melting point was 289 to 290 °C (dec.).
